Consider 2 compounds from ChEMBL document CHEMBL3832056, “DailyMed|setid=5ad109ec-1fff-498c-bc91-e2e5481122bc | RAMIPRIL- ramipril capsule|Lake Erie Medical DBA Quality Care Products LLC”.

By Tmax is commonly meant the time at which the peak concentration occurs.

The subject of series [1] is Homo sapiens. Kind of series: Half-life of Ramiprilat, active metabolite of Ramipril, evaluated after oral administration of multiple doses of 5 mg Ramipril. To be noted: in vivo, dose 5 to 10 mg, dosed compound id 51, dosed compound name RAMIPRIL, regimen Multiple dose, tissue Plasma. Format: ADME, organism-based.
Series [2] has as its system Homo sapiens. Kind of series: Pharmacokinetic parameters for Ramipril, and its active metabolite Ramiprilat evaluated after oral administration of Ramipril. Type of series: ADME, organism-based. To be noted: in vivo, dosed compound id 51, dosed compound name RAMIPRIL, regimen Single dose; for F: at 5 mg.

In the case of `C[C@H](N[C@@H](CCc1ccccc1)C(=O)O)C(=O)N1[C@H](C(=O)O)C[C@@H]2CCC[C@@H]21` [RAMIPRILAT], in series [1], the t1/2 fell in the range of 13 to 17 h. In addition, in series [2] (tissue Plasma), the F turned out to be 44% and the Tmax lay in the range of 2 to 4 h.

Consider `CCOC(=O)[C@H](CCc1ccccc1)N[C@@H](C)C(=O)N1[C@H](C(=O)O)C[C@@H]2CCC[C@@H]21` [RAMIPRIL], for which, in series [2] (tissue Plasma), the F stood at 28%, the Absorption was in the range of 50 to 60% and the Tmax amounted to 1 h. Besides, in series [2] (tissue Feces), the Excretion turned out to be 40%. The Excretion in series [2] (tissue Urine) stood at 60%.
